Data on 14 compounds can be found in patent US4138589A, “Substituted isophthalamic acids” (Mallinckrodt, Inc., priority 1977, dated 1979).

The structures appear in SMILES notation. Where “and” joins values, the source holds several entries; their conditions need not be identical. Equal entries are not always repeated. Structures can show the parent of a compound that is named as a salt. Where two headings read alike, the source gives them in different places.

By solubility is commonly meant the concentration that dissolves in the medium under given conditions. For orientation: LD50 means the dose expected to kill half of the subjects tested.

One series in a line: Water solubility. The class given is physicochemical. As to conditions: for solubility: water.
The conditions of series [1]: prior art; cited from earlier work.
For series [2] the following is noted: found by V. H. Wallingford; cited from earlier work.
The subject of series [3] is mice. Nature of the series: Intracerebral Toxicity in Mice. The class given is in vivo, Swiss Albino mice (Charles River). As to conditions: meglumine salt solution, seven day observation. How it is done:
(§1) Satisfactory intravenous urograms are obtained when any of the preparations described in Examples 28-32 is administered to dogs at a dosage of 350 mg. I/kg. Toxicity evaluations by three different techniques were carried out on solutions of the meglumine salts of three 5-acetamido-N-[poly(hydroxyalkyl)alkyl]2,4,6-triiodoisophthalamic acids of the invention. The techniques utilized are outlined below.
Swiss Albino mice (Charles River) were used. Fixed volumes of solutions of various concentrations of the iodinated compounds were injected intracerebrally via a 27 gauge needle, (1/4 inch length) according to the method of Haley, et al. (Br. J. of Pharmac. 12:12-15, 1957). The animals were observed immediately after injections and daily throughout a seven day observation period. The LD50 values were calculated by the method of Litchfield and Wilcoxon (J. of Pharmac. and Exptl. Therap. 96:99-113, (1949).

The test system of the next series is rats. The experiment in a line: Intracisternal Toxicity in Rats. The format is in vivo, Sprague Dawley (Carworth) rats. As to conditions: meglumine salt solution, two day observation. How it is done:
as §1
Sprague Dawley (Carworth) rats were used. The method used was a variation of the procedure outlined by Melartin et al. (Invest. Rad. 5:13-21, 1970). After dosing, the animals were housed individually, and observed for immediate reactions and periodically for a two day observation period. The LD50 values were calculated according to the method of Litchfield and Wilcoxon, (J. of Pharmac. and Exptl. Therap. 96:99-115, 1949).

Series [4] can be described thus: Acute Intravenous Toxicity Studies in Mice. As to conditions: mouse, in vivo, iv, meglumine salt solution, 28.27% iodine, lateral tail vein, 1 ml/min, seven day observation; read-out: LD50 I.V. (Mice). The format is in vivo. On the procedure:
as §1
(§2) Swiss Albino mice (Charles River) were dosed in the lateral tail vein with solutions of the iodinated compound containing 28.27% of iodine, injected at the rate of 1 ml/min. […] The LD50 values were calculated by the method of Litchfield and Wilcoxon (J. of Pharmac. and Exptl. Therap. 96: 99-113, 1949).

In series [5] the test system is mice. The experiment in a line: Acute Intravenous Toxicity Studies in Mice. The format is in vivo. As to conditions: meglumine salt solution, 28.27% iodine, lateral tail vein, 1 ml/min, seven day observation; 10080 min. On the procedure: as §1, §2
The mark [6] stands for this setting: temperature not stated, read-out: solubility.

Turning to `CC(=O)Nc1c(I)c(C(=O)[O-])c(I)c(C(=O)NC(COC(C)=O)(COC(C)=O)COC(C)=O)c1I.[Na+]`, in “Water solubility” (sodium salt powder, read-out: solubility in water), the solubility is at least 1000 mg/mL.
`COCC(=O)Nc1c(I)c(C(=O)[O-])c(I)c(C(=O)NC(CO)(CO)CO)c1I.[Na+]`: in “Water solubility” (sodium salt, 25° C., read-out: solubility in water), the solubility was around 674 mg/mL.
With `CC(=O)Nc1c(I)cc(I)c(C(=O)[O-])c1I.[Na+]`, the “toxicity (in words)” value in series [1] is reported as “unexpectedly low”. In addition, the “water solubility (in words)” value in series [2] is “unexpectedly high”.
With `CC(=O)Nc1c(I)c(C(=O)O)c(I)c(C(=O)NCCO)c1I` [5-acetamido-2,4,6-triiodo-N-(2-hydroxyethyl)-isophthalamicacid, reference compound], in the series with mice [3], the “LD50 Intracerebral (Mice)” value is 174 mg. contained iodine/kg. anima. Also, in the series with rats, the “LD50 Intracisternal (Rats)” value was 49 mg. contained iodine/kg. anima. The LD50 at 168 h in series [4] worked out at 5810 mg/kg.
For `CC(=O)Nc1c(I)c(C(=O)O)c(I)c(C(=O)NC(CO)(CO)CO)c1I` [Example 7, meglumine salt of 5-acetamido-N-[tris(hydroxymethyl)methyl]-2,4,6-triiodoisophthalamic acid], the solubility in “Water solubility” (setting [6]) is above 600 mg/mL.
As for `CC(=O)Nc1c(I)c(C(=O)O)c(I)c(C(=O)NC(C)(CO)CO)c1I` [Example 10, 5-Acetamido-N-[2-(1,3-dihydroxy-2-methyl) Propyl]-2,4,6-triiodoisophthalamic Acid], the “LD50 Intracerebral (Mice)” value in the series with mice [3] is given as 790 mg. contained iodine/kg. anima. Further, the “LD50 Intracisternal (Rats)” value in the series with rats was 242 mg. contained iodine/kg. anima. The 50% lethal dose (LD50) at 168 h in series [4] stood at 4650 mg/kg.
On to `CC(=O)Nc1c(I)c(C(=O)O)c(I)c(C(=O)NC(C)(CO)CO)c1I` [Example 11, 5-Acetamido-N-[2-(1,3-dihydroxy-2-methyl)-propyl]-2,4,6-triiodoisophthalamic Acid, Sodium Salt], for which the solubility in the series “Water solubility” (setting [6]) was around 820 mg/mL.
Take `CC(=O)Nc1c(I)c(C(=O)O)c(I)c(C(=O)NC(C)(COC(C)=O)COC(C)=O)c1I` [Example 23, Sodium 5-acetamido-N-[(1,3-diacetoxy-2-methyl)-2-propyl]-2,4,6-triiodoisophthalamate]: the “crystallization of aqueous solution on standing” value in the series “Water solubility” (102.5% w/v solution, room temperature) is “No crystallization occurred”. The solubility in the series “Water solubility” (setting [6]) was above 1000 mg/mL.
With `COCC(=O)Nc1c(I)c(C(=O)O)c(I)c(C(=O)NC(CO)(CO)CO)c1I` [Example 26(d), 2,4,6-Triiodo-5-methoxyacetamido-N-[tris(hydroxymethyl)methyl]isophthalamic Acid], the “LD50 Intracerebral (Mice)” value in the series on mice [3] is given as ~650 mg. contained iodine/kg. anima. In the series with rats, the “LD50 Intracisternal (Rats)” value is listed as ~150 mg. contained iodine/kg. anima.
As to `CC(=O)Nc1c(I)c(C(=O)O)c(I)c(C(=O)NC(CO)(CO)CO)c1I` [Examples 4(A) and 5, 5-Acetamido-N-[tris(hydroxymethyl)methyl]-2,4,6-triiodoisophthalamic Acid], in the series with mice [3], the “LD50 Intracerebral (Mice)” value is 700 mg. contained iodine/kg. anima and 638 mg. contained iodine/kg. anima. In the series on rats, the “LD50 Intracisternal (Rats)” value is recorded as 151 mg. contained iodine/kg. anima. The “LD50 I.V. (Mice)” value with mice [5] is reported as 6200 mg. contained iodine/kg. anima. In series [4], the LD50 at 168 h stood at 6150 mg/kg.
On to `CNC(=O)c1c(I)c(NC(C)=O)c(I)c(C(=O)O)c1I` [Iothalamic Acid, 5-acetamido-2,4,6-triiodo-N-methylisophthalamic acid, reference compound], for which the “LD50 Intracerebral (Mice)” value in the series on mice [3] is 280 mg. contained iodine/kg. anima. Besides, the “LD50 Intracisternal (Rats)” value in the series on rats is listed as 86 mg. contained iodine/kg. anima. Also, in series [4], the LD50 at 168 h amounted to 5740 mg/kg.
As for `CC(=O)Nc1c(I)c(NC(C)=O)c(I)c(C(=O)O)c1I` [diatrizoic acid, 3,5-diacetamido-2,4,6-triiodobenzoic acid], the “toxicity (in words)” value in series [1] was “still further reduced toxicity as compared with acetrizoic acid”.
For `Nc1c(I)c(C(=O)O)c(I)c(C(=O)NC(CO)(CO)CO)c1I` [sodium salt of 5-amino-N-[tris-(hydroxymethyl)methyl]-2,4,6-triiodoisophthalamic acid], the solubility in “Water solubility” (sodium salt, temperature not stated, read-out: water solubility) is around 800 mg/mL.
Consider `CC(CO)(CO)NC(=O)c1c(I)c(N)c(I)c(C(=O)O)c1I` [sodium salt of Example 9], for which the solubility in “Water solubility” (setting [6]) is around 930 mg/mL.
